Patent publication US9763960B2, “Wafer comprising steroid hormones” (LTS Lohmann Theraple-Systeme AG, priority 2005, dated 2017)

Assay: i.v. administration of 0.5 mg MENT (reference for bioavailability)
Type: in vivo
Conditions: after i.v. admin. of 0.5 mg MENT

C[C@@H]1CC2=CC(=O)CC[C@@H]2[C@H]2CC[C@]3(C)[C@@H](O)CC[C@H]3[C@@H]21 [MENT, 7α-methyl-19-nortestosterone]
AUC(0-tlast) geomean dose-normalized: 4.98 ng·h/mL
